Converted amounts (≈) assume the structure as drawn. Read-outs that look alike come from different tables or passages of the source. Ends that are not written are not given here.
How the values were obtained:
[1] = test system: human red blood cells (HRBCs); test: Hemolytic assay on human red blood cells; assay type: cell-based; conditions: for HRBC Hemolysis (hemolysis rate at 320 μg/mL) / EC50: human red blood cells 5% (v/v) in PBS, 37 °C 1 h, OD 540 nm; for HRBC Hemolysis (hemolysis rate at 320 μg/mL): peptide 320 μg/mL (highest dose), PBS = 0%, mean of three independent experiments; for EC50: four-parameter logistic fit of mean of three independent experiments, '-' = hemolytic activity too low to calculate the EC50; for hemolytic activity on HRBCs, result in words: mutants relative to Protopolybia-MPIII
Procedure: (§1) Fresh human red blood cells were obtained from healthy donors and collected in a sterile blood collecting vessel covered with sodium citrate (1:9) as the anticoagulating agent. Rat red blood cells were collected from the abdominal aorta in sterile blood-collecting vessels coated with sodium citrate (1:4) after the SD rats were anaesthetized with isoflurane. Then, the cells were washed three times with phosphate-buffered saline via centrifugation (1000× g, 4 °C, 5 min) and prepared in a sterile 96-well polypropylene plate to achieve a final concentration of 5% (v/v). Twofold dilutions of the peptides were prepared in PBS to 100 μL and mixed with an equal volume of HRBCs/RRBCs suspension to final peptide concentrations ranging from 10 to 320 μg/mL. After coincubation at 37 °C for 1 h, the plate was centrifuged (2000× g, 4 °C, 20 min), and 100 μL of supernatant was taken for optical density measurements at 540 nm using a microtiter plate reader (SpectraMax 190). The HRBCs/RRBCs were assayed with PBS (blank) or 1% Triton X-100 (positive control) to represent 0% and 100% hemolysis, respectively. The percent hemolysis was calculated according to the following equation: Hemolysis Rate (%) = 100% × (Amastoparans − Ablank)/(ATriton X-100 − Ablank). Three independent experiments were performed, and the mean hemolysis rate at each dose was used to calculate the EC50 in Sigmaplot software.
(§2) Statistical analysis was performed with GraphPad Prism software (version 5.0, San Diego, CA, USA). A two-tailed Student’s t-test was used to calculate the statistical probability in this study. Differences in the data were considered to be statistically significant when the p value was equal to or less than 0.05. The curve of hemolysis induced by wasp mastoparans was generated in SigmaPlot 12.5 software, and the EC50 was calculated according to the equation (Four Parameter Logistic Curve): y = min + (max − min)/(1 + (x/EC50)^−Hillslope). The heat map of hemolytic activity of mastoparan peptide was analysed in R software which is based on the value of log2(EC50).

[2] = test system: rat red blood cells (RRBCs); test: Hemolytic assay on rat red blood cells; assay type: cell-based, SD rats; conditions: for RRBC Hemolysis (hemolysis rate at 320 μg/mL) / EC50: rat red blood cells 5% (v/v) in PBS, 37 °C 1 h, OD 540 nm; for RRBC Hemolysis (hemolysis rate at 320 μg/mL): peptide 320 μg/mL (highest dose), PBS = 0%, mean of three independent experiments; for EC50: four-parameter logistic fit of mean of three independent experiments, '-' = hemolytic activity too low to calculate the EC50
Procedure: as §1, §2

[3] = test system: E. coli; conditions: reported antibacterial activity; reference per peptide in Table 3; cited from earlier work
[4] = test system: S. aureus; conditions: reported antibacterial activity; reference per peptide in Table 3; cited from earlier work
[5] = test system: Escherichia coli and Staphylococcus aureus/Bacillus subtilis; parameters: method as in Table 3 refs 12, 13, 18-30; conditions: both on Escherichia coli and Staphylococcus aureus/Bacillus subtilis; reported values, ref Table 3 refs 12, 13, 18-30; cited from earlier work
[6] = test system: B. subtilis; conditions: reported antibacterial activity; reference per peptide in Table 3; cited from earlier work
[7] = peptide 10-320 μg/mL twofold dilutions, 1% Triton X-100 = 100%, read-out: HRBC EC50 (hemolytic activity)
[8] = peptide 10-320 μg/mL twofold dilutions, 1% Triton X-100 = 100%, read-out: RRBC EC50 (hemolytic activity)
[9] = Table 2 series, read-out: HRBC EC50 (hemolytic activity), Protopolybia-MPIII and mutants
[10] = Table 2 series, read-out: RRBC EC50 (hemolytic activity), Protopolybia-MPIII and mutants

Molecule	HRBC Hemolysis (hemolysis rate at 320 μg/mL) ([1]; 1% Triton X-100 = 100%) [%]	EC50 [1, 7] [µM]	RRBC Hemolysis (hemolysis rate at 320 μg/mL) ([2]; 1% Triton X-100 = 100%) [%]	EC50 [2, 8] [µM]	MIC E. coli [3] [µM]	MIC S. aureus [4] [µM]	MIC (antibacterial activity, summary) [5] [µM]	MIC B. subtilis [6] [µM]	hemolytic activity on HRBCs, result in words [1]	hemolytic activity on RRBCs, result in words [2]	EC50 [1, 9] [µM]	EC50 [2, 10] [µM]
INWKGIAAMKKLL-NH2 [Mastoparan-like peptide 12b]	0	≥ 400	0	> 400	10	2.5	≤ 10	–	–	–	–	–
LKLMGIVKKVLGAL-NH2 [EMP-EM1]	21	> 400	7	> 400	7	34	–	68	–	–	–	–
CC[C@H](C)[C@H](NC(=O)[C@H](CO)NC(=O)[C@H](CCCCN)NC(=O)[C@H](CC(C)C)NC(=O)[C@H](CCCCN)NC(=O)[C@@H](N)CC(C)C)C(=O)N[C@H](C(=O)N[C@@H](CO)C(=O)N[C@@H](Cc1c[nH]c2ccccc12)C(=O)N[C@@H](C)C(=O)N[C@@H](CCCCN)C(=O)N[C@@H](CCCCN)C(=O)N[C@H](C(=O)N[C@@H](CC(C)C)C(N)=O)C(C)C)C(C)C [Mastoparan-B]	22	> 400	19	> 400	10 (≈ 16.1 µg/mL)	60 (≈ 96.7 µg/mL)	–	–	–	–	–	–
INLKGLIKKVASLLT-OH [EpVP1]	9	> 400	0	> 400	25	100	–	5	almost no hemolytic activity	almost no hemolytic activity	–	–
INMKASAAVAKKLL-NH2 [MP-VB1]	0	> 400	7	> 400	10.3	2.5	–	–	–	–	–	–
KDLHTVVSAILQAL-NH2 [OdVP3a]	24	> 400	27	> 400	>200	>200	–	10	–	–	–	–
LNLKGIFKKVASLLT-OH [Eumenitin]	6	> 400	4	> 400	6	6	–	>60	almost no hemolytic activity	almost no hemolytic activity	–	–
LNLKGLIKKVASLLN-OH [Eumenitin-R]	5	> 400	7	> 400	30	60	–	–	almost no hemolytic activity	almost no hemolytic activity	–	–
INWKKIAEVGGKILSSL-NH2 [Dominulin A]	4	≥ 400	0	> 400	1	–	≤ 10	4	–	–	–	–
INLKAIAALAKKLL-NH2 [Mastoparan-M]	18	> 400	28	> 400	13.5	3.38	–	–	–	–	–	–
INLKVFAALVKKLL-NH2 [Mastoparan-T2]	100	11.8 ± 3.1	100	21.1 ± 2.4	–	–	–	–	–	–	–	–
INWLKLGKAIIDAL-NH2 [Agelaia-MPI]	100	3.7 ± 0.14	98	7 ± 0.7	–	–	–	–	–	–	–	–
INWLKLGKKMMSAL-NH2 [MP]	87	124 ± 15.3	10	–	–	–	–	–	–	–	–	–
INWKKIAEIGKQVLSAL-NH2 [Dominulin B]	8	≥ 400	0	> 400	1	–	≤ 10	4	–	–	–	–
IKWKAILDAVKKVL-NH2 [Mastoparan-A]	7	–	56	183 ± 3.4	–	–	–	–	–	–	–	–
INWLKLGKQILGAL-NH2 [Pm-R3]	100	32.3 ± 1.7	100	73.5 ± 5.1	–	–	–	–	–	–	–	–
INWLKLGKAVIDIL-NH2 [Protopolybia-MPIII-4]	–	–	–	–	–	–	–	–	–	–	11.3 ± 6.2	19.8 ± 1.2
FDLLGLVKSVVSAL-NH2 [EpVP2b]	100	34.1 ± 3.5	100	50.6 ± 2.6	–	–	–	–	–	–	–	–
INLKAIAAFAKKLL-NH2 [Mastoparan-T(D)]	15	> 400	19	> 400	5.3	15.9	–	–	–	–	–	–
INLKAIAALAKKLF-NH2 [Mastoparan AF]	47	227 ± 3.1	92	107 ± 15.7	–	–	–	–	–	–	–	–
INWLKLGKKVSAIL-NH2 [Protopolybia-MP I]	5	> 400	5	> 400	–	–	–	–	almost no hemolytic activity	–	> 400	> 400
INWKAIIEAAKQAL-NH2 [Protopolybia-MPII]	13	> 400	24	> 400	–	–	–	–	–	–	–	–
INWLKLGKAVSAAL-NH2 [Protopolybia-MPIII-8]	–	–	–	–	–	–	–	–	–	–	308 ± 6.2	444 ± 2.1
INWLKLGKAVIAIL-NH2 [Protopolybia-MPIII-10]	–	–	–	–	–	–	–	–	–	–	11.3 ± 1.2	11.7 ± 1
LKLLGIVKKVLGAI-NH2 [EMP-EM2]	8	> 400	2	> 400	3	17	–	68	–	–	–	–
INWAKLGKLALQAL-NH2 [Ropalidia-MP]	100	42.5 ± 1.7	94	122 ± 4.3	–	–	–	–	–	–	–	–
INWLKLGKKVIDAL-NH2 [Protopolybia-MPIII-1]	–	–	–	–	–	–	–	–	–	–	176.4 ± 1	158 ± 2.3
INMKAVAAVAKKPL-NH2 [MP-VB2]	0	–	0	–	–	–	–	–	–	–	–	–

From publication PMC10611374, “Characterization of the Hemolytic Activity of Mastoparan Family Peptides from Wasp Venoms” (Toxins, 2023)
